{"source": "ChEMBL document CHEMBL1134487", "about": "“Design, synthesis, and biological evaluation of analogues of the antitumor agent, 2-(4-[(7-chloro-2-quinoxalinyl)oxy]phenoxy)propionic acid (XK469)” (2001)", "key": {"[1]": {"tested_on": "Mus musculus", "assay": "In vivo activity tested against C3H mice bearing colon adenocarcinoma -38(colon-38) tumor measured as body weight loss at 1433 mg/kg (po)", "type": "functional"}, "[2]": {"tested_on": "Mus musculus", "assay": "In vivo activity tested against C3H mice bearing colon adenocarcinoma -38(colon-38) tumor measured as % treated/control calculated at 1433 mg/kg (po)", "type": "functional"}, "[3]": {"tested_on": "Mus musculus", "assay": "In vivo activity tested against C3H mice bearing colon adenocarcinoma -38(colon-38) tumor measured as log Kill value was based on tumors that grew at 1433 mg/kg (po)", "type": "functional, organism-based", "design": "dose 1433 mg/kg"}, "[4]": {"tested_on": "Mus musculus", "assay": "In vivo activity tested against C3H mice bearing colon adenocarcinoma -38(colon-38) tumor measured as activity rating at 1433 mg/kg (po)", "type": "functional"}, "[5]": {"tested_on": "Mus musculus", "assay": "In vivo activity tested against C3H mice bearing colon adenocarcinoma -38(colon-38) tumor measured as body weight loss at 495 mg/kg (po)", "type": "functional"}, "[6]": {"tested_on": "Mus musculus", "assay": "In vivo activity tested against C3H mice bearing colon adenocarcinoma -38(colon-38) tumor, measured as cures at 495 mg/kg (po); 3/5 cures", "type": "functional"}, "[7]": {"tested_on": "Mus musculus", "assay": "In vivo activity tested against C3H mice bearing colon adenocarcinoma -38(colon-38) tumor measured as log Kill value was based on tumors that grew at 495 mg/kg (po)", "type": "functional, organism-based", "design": "dose 495 mg/kg"}, "[8]": {"tested_on": "Mus musculus", "assay": "In vivo activity tested against C3H mice bearing colon adenocarcinoma -38(colon-38) tumor measured as % treated/control calculated at 495 mg/kg (po)", "type": "functional"}, "[9]": {"tested_on": "Mus musculus", "assay": "In vivo activity tested against C3H mice bearing colon adenocarcinoma -38(colon-38) tumor measured as activity rating at 495 mg/kg (po)", "type": "functional"}, "[10]": {"tested_on": "Mus musculus", "assay": "In vivo activity tested against C3H mice bearing colon adenocarcinoma -38(colon-38) tumor measured as % treated/control calculated at 2770 mg/kg (po)", "type": "functional"}, "[11]": {"tested_on": "Mus musculus", "assay": "In vivo activity tested against C3H mice bearing colon adenocarcinoma -38(colon-38) tumor measured as activity rating at 2770 mg/kg (po)", "type": "functional"}, "[12]": {"tested_on": "Mus musculus", "assay": "In vivo activity tested against C3H mice bearing colon adenocarcinoma -38(colon-38) tumor measured as body weight loss at 2770 mg/kg (po)", "type": "functional"}, "[13]": {"tested_on": "Mus musculus", "assay": "In vivo activity tested against C3H mice bearing colon adenocarcinoma -38(colon-38) tumor measured as log Kill value was based on tumors that grew at 2770 mg/kg (po); None", "type": "functional, organism-based", "design": "dose 2770 mg/kg"}, "[14]": {"tested_on": "Mus musculus", "assay": "In vivo activity tested against C3H mice bearing colon adenocarcinoma -38(colon-38) tumor measured as activity rating at 769 mg/kg (po)", "type": "functional"}, "[15]": {"tested_on": "Mus musculus", "assay": "In vivo activity tested against C3H mice bearing colon adenocarcinoma -38(colon-38) tumor measured as % treated/control calculated at 769 mg/kg (po)", "type": "functional"}, "[16]": {"tested_on": "Mus musculus", "assay": "In vivo activity tested against C3H mice bearing colon adenocarcinoma -38(colon-38) tumor measured as log Kill value was based on tumors that grew at 769 mg/kg (po)", "type": "functional, organism-based", "design": "dose 769 mg/kg"}, "[17]": {"tested_on": "Mus musculus", "assay": "In vivo activity tested against C3H mice bearing colon adenocarcinoma -38(colon-38) tumor measured as body weight loss at 769 mg/kg (po)", "type": "functional"}, "[18]": {"tested_on": "Mus musculus", "assay": "In vivo activity tested against C3H mice bearing panc-03 murine tumor measured as log Kill value was based on tumors that grew at 324 mg/kg (po)", "type": "functional, organism-based", "design": "dose 324 mg/kg"}, "[19]": {"tested_on": "Mus musculus", "assay": "In vivo activity tested against C3H mice bearing panc-03 murine tumor measured as log Kill value was based on tumors that grew at 180 mg/kg (po)", "type": "functional, organism-based", "design": "dose 180 mg/kg"}, "[20]": {"tested_on": "Mus musculus", "assay": "In vivo activity tested against C3H mice bearing mammary adenocarcinoma -17/ADR tumor measured as body weight loss at 99 mg/kg (po)", "type": "functional"}, "[21]": {"tested_on": "Mus musculus", "assay": "In vivo activity tested against C3H mice bearing mammary adenocarcinoma -17/ADR tumor measured as log Kill value was based on tumors that grew at 162 mg/kg (po)", "type": "functional, organism-based", "design": "dose 162 mg/kg"}, "[22]": {"tested_on": "Mus musculus", "assay": "In vivo activity tested against C3H mice bearing panc-03 murine tumor measured as body weight loss at 180 mg/kg (po)", "type": "functional"}, "[23]": {"tested_on": "Mus musculus", "assay": "In vivo activity tested against C3H mice bearing mammary adenocarcinoma -17/ADR tumor measured as log Kill value was based on tumors that grew at 99 mg/kg (po)", "type": "functional, organism-based", "design": "dose 99 mg/kg"}, "[24]": {"tested_on": "Mus musculus", "assay": "In vivo activity tested against C3H mice bearing mammary adenocarcinoma -16c/ADR tumor measured as log Kill value was based on tumors that grew at 164 mg/kg (po)", "type": "functional, organism-based", "design": "dose 164 mg/kg"}, "[25]": {"tested_on": "Mus musculus", "assay": "In vivo activity tested against C3H mice bearing panc-03 murine tumor measured as % treated/control calculated at 180 mg/kg (po)", "type": "functional"}, "[26]": {"tested_on": "Mus musculus", "assay": "In vivo activity tested against C3H mice bearing panc-03 murine tumor measured as % treated/control calculated at 324 mg/kg (po)", "type": "functional"}, "[27]": {"tested_on": "Mus musculus", "assay": "In vivo activity tested against C3H mice bearing panc-03 murine tumor measured as body weight loss at 324 mg/kg (po)", "type": "functional"}, "[28]": {"tested_on": "Mus musculus", "assay": "In vivo activity tested against C3H mice bearing mammary adenocarcinoma -17/ADR tumor measured as % treated/control calculated at 99 mg/kg (po)", "type": "functional"}, "[29]": {"tested_on": "Mus musculus", "assay": "In vivo activity tested against C3H mice bearing mammary adenocarcinoma -17/ADR tumor measured as % treated/control calculated at 162 mg/kg (po)", "type": "functional"}, "[30]": {"tested_on": "Mus musculus", "assay": "In vivo activity tested against C3H mice bearing mammary adenocarcinoma -17/ADR tumor measured as body weight loss at 162 mg/kg (po)", "type": "functional"}, "[31]": {"tested_on": "Mus musculus", "assay": "In vivo activity tested against C3H mice bearing mammary adenocarcinoma -16c/ADR tumor measured as body weight loss at 164 mg/kg (po)", "type": "functional"}, "[32]": {"tested_on": "Mus musculus", "assay": "In vivo activity tested against C3H mice bearing mammary adenocarcinoma -16c/ADR tumor measured as % treated/control calculated at 164 mg/kg (po)", "type": "functional"}, "[33]": {"tested_on": "Mus musculus", "assay": "In vivo activity tested against C3H mice bearing panc-03 murine tumor at a dose of 330mg/kg, measured as % treated/control", "type": "functional"}, "[34]": {"tested_on": "Mus musculus", "assay": "In vivo activity tested against C3H mice bearing panc-03 murine tumor at a dose of 330 mg/kg, measured as activity rating at 330 mg/kg iv dose", "type": "functional"}}, "note": "Activity calls are given as the source filed them. The calls are words filed in the database; no cut-off is given here.", "data": [{"smiles": "COC(=O)C(C)Oc1ccc(Oc2cnc3ccc(F)cc3n2)cc1", "note": "(centres undefined)", "values": [{"measurement": "Body weight loss", "setting": "[1]", "value": 1, "unit": "%"}, {"measurement": "T/C", "setting": "[2]", "value": 34, "unit": "%"}, {"measurement": "Log kill", "setting": "[3]", "value": 0.8}, {"measurement": "Activity rating", "setting": "[4]", "value": 1.2}]}, {"smiles": "COC(=O)C(C)Oc1ccc(Oc2cnc3ccc(Cl)cc3n2)cc1", "note": "(centres undefined)", "values": [{"measurement": "Body weight loss", "setting": "[5]", "value": 0, "unit": "%"}, {"measurement": "Cures", "setting": "[6]", "value": 3}, {"measurement": "Log kill", "setting": "[7]", "value": 3.5}, {"measurement": "T/C", "setting": "[8]", "value": 0, "unit": "%"}, {"measurement": "Activity rating", "setting": "[9]", "value": ">2.8"}]}, {"smiles": "COC(=O)C(C)Oc1ccc(Oc2cnc3cc(Cl)ccc3n2)cc1", "note": "(centres undefined)", "values": [{"measurement": "T/C", "setting": "[10]", "value": ">100", "unit": "%"}, {"measurement": "Activity rating", "setting": "[11]", "value": "<0.7"}, {"measurement": "Body weight loss", "setting": "[12]", "value": 0, "unit": "%"}, {"measurement": "Log kill", "setting": "[13]", "value": "inactive"}]}, {"smiles": "CC(Oc1ccc(Oc2cnc3cc(F)ccc3n2)cc1)C(=O)O", "note": "(centres undefined)", "values": [{"measurement": "Activity rating", "setting": "[14]", "value": 1.2}, {"measurement": "T/C", "setting": "[15]", "value": 34, "unit": "%"}, {"measurement": "Log kill", "setting": "[16]", "value": 0.9}, {"measurement": "Body weight loss", "setting": "[17]", "value": 1, "unit": "%"}]}, {"smiles": "COc1c(Cl)ccc2ncc(Oc3ccc(OC(C)C(=O)O)cc3)nc12", "note": "(centres undefined)", "values": [{"measurement": "Log kill", "setting": "[18]", "value": 3}, {"measurement": "Log kill", "setting": "[19]", "value": 0.64}, {"measurement": "Body weight loss", "setting": "[20]", "value": -1.5, "unit": "%"}, {"measurement": "Log kill", "setting": "[21]", "value": 1.5}, {"measurement": "Body weight loss", "setting": "[22]", "value": 5, "unit": "%"}, {"measurement": "Log kill", "setting": "[23]", "value": 1.2}, {"measurement": "Log kill", "setting": "[24]", "value": 1.7}, {"measurement": "T/C", "setting": "[25]", "value": 33, "unit": "%"}, {"measurement": "T/C", "setting": "[26]", "value": 0, "unit": "%"}, {"measurement": "Body weight loss", "setting": "[27]", "value": -15, "unit": "%"}, {"measurement": "T/C", "setting": "[28]", "value": 13, "unit": "%"}, {"measurement": "T/C", "setting": "[29]", "value": 7, "unit": "%"}, {"measurement": "Body weight loss", "setting": "[30]", "value": -16.4, "unit": "%"}, {"measurement": "Body weight loss", "setting": "[31]", "value": -6.2, "unit": "%"}, {"measurement": "T/C", "setting": "[32]", "value": 7.5, "unit": "%"}]}, {"smiles": "CC(Nc1ccc(Oc2cnc3ccc(Cl)cc3n2)cc1)C(=O)O", "note": "(centres undefined)", "values": [{"measurement": "T/C", "setting": "[33]", "value": 100, "unit": "%"}, {"measurement": "Activity rating", "setting": "[34]", "value": ">2.8"}]}]}
